{"source": "patent US20240165129A1", "about": "“METHODS OF TREATING PAIN AND DEPRESSION” (priority 2022, published 2024)", "biological_target": "T1, heteromeric ASIC1a/2a channels (Mus musculus, UniProt Q6NXK8+Q925H0)", "T1 sequence (Q6NXK8 1-526)": "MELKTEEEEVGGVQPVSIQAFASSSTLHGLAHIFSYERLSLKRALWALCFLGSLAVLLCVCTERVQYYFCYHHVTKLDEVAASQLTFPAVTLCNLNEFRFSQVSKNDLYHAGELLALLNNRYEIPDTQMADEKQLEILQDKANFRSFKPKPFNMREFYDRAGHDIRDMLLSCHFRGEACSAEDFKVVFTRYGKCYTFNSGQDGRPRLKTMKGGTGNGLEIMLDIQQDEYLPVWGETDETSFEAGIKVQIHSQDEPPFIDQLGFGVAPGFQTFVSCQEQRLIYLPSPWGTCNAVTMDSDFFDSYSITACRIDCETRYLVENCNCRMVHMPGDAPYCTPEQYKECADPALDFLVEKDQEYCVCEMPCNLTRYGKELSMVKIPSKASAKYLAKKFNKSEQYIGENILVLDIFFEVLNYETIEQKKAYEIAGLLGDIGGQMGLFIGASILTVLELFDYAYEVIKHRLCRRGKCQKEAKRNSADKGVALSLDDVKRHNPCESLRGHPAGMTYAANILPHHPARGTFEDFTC", "T1 sequence (Q925H0 1-512)": "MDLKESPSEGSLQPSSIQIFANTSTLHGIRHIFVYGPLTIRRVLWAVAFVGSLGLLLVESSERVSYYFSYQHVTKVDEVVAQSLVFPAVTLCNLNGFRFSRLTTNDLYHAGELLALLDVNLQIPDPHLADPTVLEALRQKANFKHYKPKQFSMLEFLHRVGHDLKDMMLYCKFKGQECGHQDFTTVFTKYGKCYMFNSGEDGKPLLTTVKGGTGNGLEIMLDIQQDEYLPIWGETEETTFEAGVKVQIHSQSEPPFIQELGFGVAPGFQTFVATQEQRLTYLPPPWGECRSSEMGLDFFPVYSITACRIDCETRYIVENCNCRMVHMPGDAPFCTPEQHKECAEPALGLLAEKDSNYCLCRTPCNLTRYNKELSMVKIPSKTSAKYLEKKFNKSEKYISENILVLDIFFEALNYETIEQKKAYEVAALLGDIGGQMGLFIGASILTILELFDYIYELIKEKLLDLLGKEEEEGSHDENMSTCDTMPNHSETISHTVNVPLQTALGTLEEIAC", "experiment": "ASIC currents in cortical neurons in the presence of PcTx1 (heteromeric channels)", "settings": "Triol 10 μM", "protocol": "Mouse cortical neurons were cultured. Pregnant Swiss mice were purchased from Charles River. The use of mice for neuronal cultures was approved by the Institutional Animal Care and Use Committee of Morehouse School of Medicine. Briefly, the brains of fetuses (embryonic day 16) were removed quickly from anesthetized pregnant mice and placed in cold Ca2+/Mg2+-free PBS. Cerebral cortices were dissected and incubated with 0.05% trypsin-EDTA for 10 min at 37° C., followed by trituration. Cells were plated in poly-L-ornithine-coated culture dishes. Cells were initially cultured in minimal essential medium (MEM) with 10% fetal bovine serum (FBS), 10% horse serum, and 25 mM glucose and maintained at 37° C. in a humidified 5% CO2 atmosphere incubator for 24 h. After that, the culture medium was completely replaced by Neurobasal medium supplemented with B-27 (Invitrogen) and then changed twice a week. Neurons were used for the experiments between days 10 and 14.\nASIC currents were recorded using patch-clamp techniques. Pipette solution contained (mM): 140 CsF, 1 CaCl2, 2 MgCl2, 11 EGTA, 2 tetraethylammonium chloride, 10 HEPES and 4 MgATP, pH 7.3 adjusted with CsOH, 290-300 mOsm. […] Currents were recorded with Axopatch 200B amplifier, filtered at 2 kHz, and digitized at 5 kHz using Digidata 1332A. […]"}
{"smiles": "CC(C)CCC[C@@H](C)[C@H]1CC[C@H]2[C@@H]3C[C@@H](O)[C@@]4(O)C[C@@H](O)CC[C@]4(C)[C@H]3CC[C@]12C", "note": "[Triol, cholestane-3β, 5α, 6β-triol]", "values": [{"measurement": "effect on remaining ASIC currents in the presence of PcTx1", "setting": "PcTx1 40 nM, PcTx-1 sensitive neurons, n=9", "value": "further inhibited"}, {"measurement": "effect on PcTx1 insensitive ASIC currents", "setting": "PcTx-1 insensitive neurons (3 of 12 cells)", "value": "still inhibit these currents"}]}
